The target of one assay is T1, HIV-1 RT WT (Human immunodeficiency virus type 1 group M subtype B, UniProt P03366).
T1 construct: mutations that occur in the reverse transcriptase segment of the pol gene
As to the kind of experiment: Reverse Transcriptase (RT) assay, wild type. Format: biochemical. The text has this:
(§1) Based upon testing of these compounds, as described below, it is known that they inhibit the RNA-dependent DNA polymerase activity of HIV-1 RT. Utilizing the Reverse Transcriptase (RT) Assay described below, compounds can be tested for their ability to inhibit the RNA-dependent DNA polymerase activity of HIV-1 RT. Certain specific compounds described in the Examples which appear below, were so tested. The results of this testing appear in Table 2 as IC50 (nM) and EC50 (nM).
(§2) The assays are as described in WO 01/96338A1, the contents of which are hereby incorporated herein. The results are listed in Table 2 as IC50(nM) and EC50 (nM).

For another assay, the target named is T2, HIV-1 RT K103N/Y181C (Human immunodeficiency virus type 1 group M subtype B, UniProt P03366, K702N/Y780C).
T2 construct: mutations that occur in the reverse transcriptase segment of the pol gene
The assay can be described thus: Reverse Transcriptase (RT) assay, double mutant K103N/Y181C. Format: biochemical.
Excerpt: as §1, §2

In assay [1] the test system is wild type HIV-1 replication. As to the kind of experiment: Cell-based assay, wild type HIV.
Excerpt: as §2

pEC50, pIC50: −log10 of the molar value. Read-outs that look alike come from different tables or passages of the source.

“4′-{(9H-imidazo[1,2-d]dipyrido[2,3-b:3′,2′-f][1,4]diazepin-12-yl)ethoxy}-3′-methyl-[1,1′-biphenyl]4-acetic acid [Entry 119]”: the pIC50 was more than 7.30 at HIV-1 RT WT (wild type RT, read-out: IC50 WT) and more than 7.30 at HIV-1 RT K103N/Y181C (double mutant K103N/Y181C RT, read-out: IC50 K103N/Y181C). In addition, the pEC50 in assay [1] was more than 8.00.

Take `CCN1c2ncc(CCOc3cccc4c3CNC(=O)N4)cc2-c2nc(C)cn2-c2cccnc21` [Entry 101]: the pIC50 on HIV-1 RT WT was more than 7.30; against HIV-1 RT K103N/Y181C, less than 7.00.

Take `CCN1c2ncc(CCOc3cccc4c3C=CS(=O)(=O)N4C)cc2-c2ncc(C)n2-c2cccnc21` [Entry 102]: the pIC50 at HIV-1 RT WT and at HIV-1 RT K103N/Y181C was more than 7.30 each time. The pEC50 in assay [1] (Human immunodeficiency virus 1) was more than 8.00.

For the compound `CCN1c2ncc(CCOc3cccc4c3CNC4=O)cc2-c2ncc(C)n2-c2cccnc21` [Entry 103], the pIC50 was more than 7.30 against HIV-1 RT WT and less than 7.00 on HIV-1 RT K103N/Y181C. In assay [1] (Human immunodeficiency virus 1), this compound gave a pEC50 of more than 8.00.

As for `CCN1c2ncc(CCOc3cccc4c3CCS(=O)(=O)N4)cc2-c2ncc(C)n2-c2cccnc21` [Entry 104], the pIC50 at HIV-1 RT WT was more than 7.30; on HIV-1 RT K103N/Y181C, 7.00 to 7.30.

For `CCN1c2ncc(CCOc3cccc4c3CNS4(=O)=O)cc2-c2ncc(C)n2-c2cccnc21` [Entry 105], the pIC50 against HIV-1 RT WT and against HIV-1 RT K103N/Y181C was more than 7.30 throughout.

In the case of `CCN1c2ncc(CCOc3cccc4c3COC(=O)N4)cc2-c2ncc(C)n2-c2cccnc21` [Entry 106], the pIC50 against HIV-1 RT WT was more than 7.30; on HIV-1 RT K103N/Y181C, less than 7.00.

With `CCN1c2ncc(CCOc3ccc4c(c3)C(C)(C)NS4(=O)=O)cc2-c2nccn2-c2c(C)ccnc21` [Entry 107], the pIC50 on HIV-1 RT WT and against HIV-1 RT K103N/Y181C was more than 7.30 throughout.

Consider `CCN1c2ncc(CCOc3cccc4c3CNC(=O)N4)cc2-c2nccn2-c2c(C)ccnc21` [Entry 108], for which the pIC50 at HIV-1 RT WT and at HIV-1 RT K103N/Y181C was more than 7.30 in each case.

For the compound `CCN1c2ncc(CCOc3cccc4c3CNC(=O)N4)cc2-c2nccn2-c2cccnc21` [Entry 109], the pIC50 at HIV-1 RT WT and against HIV-1 RT K103N/Y181C was more than 7.30 in each case.

As to `CCN1c2ncc(CCOc3cccc4c3CCNC4=O)cc2-c2ncc(C)n2-c2cccnc21` [Entry 110, 9-Ethyl-3-methyl-12-{2-{(1,2,3,4-ttrahydro-1-oxo-5-isoquinolinyl)oxy}ethyl}-9H-imidazo[1,2-d]dipyrido[2,3-b:3′,2′-f][1,4]diazepine], the pIC50 was more than 7.30 at HIV-1 RT WT and less than 7.00 on HIV-1 RT K103N/Y181C.

In the case of `CCN1c2ncc(CCOc3cccc4c3CN(C)C(=O)N4C)cc2-c2ncc(C)n2-c2cccnc21` [Entry 111], the results for the pIC50 on HIV-1 RT WT and against HIV-1 RT K103N/Y181C were more than 7.30 and less than 7.00, respectively.

For the compound `CCOC(=O)N1c2cccc(OCCc3cnc4c(c3)-c3nccn3-c3c(C)ccnc3N4CC)c2CS1(=O)=O` [Entry 112], the pIC50 on HIV-1 RT WT and on HIV-1 RT K103N/Y181C was more than 7.30 throughout.

For the compound `CCN1c2ncc(CCOc3cccc4c3CS(=O)(=O)N4)cc2-c2nccn2-c2c(C)ccnc21` [Entry 113], the figures for the pIC50 at HIV-1 RT WT and on HIV-1 RT K103N/Y181C were more than 7.30 and 7.00 to 7.30, respectively.

As for `CCN1c2ncc(CCOc3cccc4c3CS(=O)(=O)N4CC(=O)OC(C)(C)C)cc2-c2nccn2-c2c(C)ccnc21` [Entry 114], the pIC50 at HIV-1 RT WT is more than 7.30; against HIV-1 RT K103N/Y181C, 7.00 to 7.30.

With `CCN1c2ncc(CCOc3cccc4c3CS(=O)(=O)N4CC(=O)O)cc2-c2nccn2-c2c(C)ccnc21` [Entry 115], the pIC50 against HIV-1 RT WT is more than 7.30; on HIV-1 RT K103N/Y181C, 7.00 to 7.30. This compound also showed a pEC50 in assay [1] (Human immunodeficiency virus 1) of less than 7.30.

For the compound `CCN1c2ncc(CCOc3ccc(C(=O)O)cc3C)cc2-c2nccn2-c2cccnc21` [Entry 117], the pIC50 against HIV-1 RT WT was more than 7.30; against HIV-1 RT K103N/Y181C, less than 7.00. Moreover, in assay [1] (Human immunodeficiency virus 1), the pEC50 is more than 8.00.

As to `CCN1c2ncc(CCOc3ccc(C(=O)O)cc3C)cc2-c2ncc(C)n2-c2cccnc21` [Entry 118], the pIC50 at HIV-1 RT WT and against HIV-1 RT K103N/Y181C was more than 7.30 throughout.

In the case of `CCN1c2ncc(CCOc3ccc(-c4ccc(CC(=O)O)cc4)cc3C)cc2-c2ncc(C)n2-c2cccnc21` [Entry 120], the pIC50 is more than 7.30 on HIV-1 RT WT and 7.00 to 7.30 at HIV-1 RT K103N/Y181C.

With `CCN1c2ncc(CCOc3ccc(C(=O)O)c4c3CCCC4)cc2-c2ncc(C)n2-c2cccnc21` [Entry 121], the pIC50 is more than 7.30 at HIV-1 RT WT and less than 7.00 on HIV-1 RT K103N/Y181C.

For the compound `CCN1c2ncc(CCOc3ccc(C(=O)O)c4ccccc34)cc2-c2ncc(C)n2-c2cccnc21` [Entry 122], the figures for the pIC50 on HIV-1 RT WT and at HIV-1 RT K103N/Y181C were more than 7.30 and less than 7.00, respectively.

The record behind these values is US7273861B2, “Non-nucleoside reverse transcriptase inhibitors” (Boehringer Ingelheim (Canada) Ltd., priority 2002, dated 2007).
